In the supplement of paper PMC10307832:

Tests used:
BAM7 + Foretinib = compound: CCOC1=CC=CC=C1N=NC2=C(NN(C2=O)C3=NC(=CS3)C4=CC=CC=C4)C [BAM7] + COc1cc2c(Oc3ccc(NC(=O)C4(C(=O)Nc5ccc(F)cc5)CC4)cc3F)ccnc2cc1OCCCN1CCOCC1 [Foretinib] (partner 0.25 µM); assay: relative viability (nuclei count vs DMSO), 5 days (fraction); higher = more cells survive
Method in brief: (§1)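 Cells from lung cancer lines were seeded into 1536-well plates and, one day later, dosed by pin tool. Treatments were either a single drug or a fixed dose of an anchor drug with five library-drug doses (not always all listed) in √10 steps. After 5 days, nuclei were stained in a one-step fixation (final 0.05% Triton X-100, 1% formaldehyde, 1 ug/ml Hoechst) and counted on 4× images, and relative viability is the treated-to-vehicle nuclei ratio, as the median of duplicate plates.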

[1] = compound: CCn1c(-c2nonc2N)nc2c(C#CC(C)(C)O)ncc(OC[C@H]3CCCNC3)c21 + Cc1cc(Nc2cc(N3CCN(C)CC3)nc(Sc3ccc(NC(=O)C4CC4)cc3)n2)n[nH]1 [Tozasertib] (partner 0.1 µM); assay: as above
Method in brief: as §1

Cell Line | relative viability (BAM7 + Foretinib; first compound 0.5 µM) | relative viability (BAM7 + Foretinib; first compound 5 µM) | relative viability (BAM7 + Foretinib; first compound 15.81 µM) | relative viability (BAM7 + Foretinib; first compound 50 µM) | relative viability ([1]; first compound 0.01 µM) | relative viability ([1]; first compound 0.03162 µM) | relative viability ([1]; first compound 0.1 µM) | relative viability ([1]; first compound 0.3162 µM) | relative viability ([1]; first compound 1 µM)
NCI-H1975 | 0.77 | 0.801 | 0.718 | 0.829 | 0.768 | 0.715 | 0.757 | 0.777 | 0.658
CAL-12T | 1.22 | 1.18 | 1.09 | 1.23 | 0.351 | 0.354 | 0.303 | 0.309 | 0.298
NCI-H1623 | 0.905 | 0.831 | 0.689 | 0.786 | 0.433 | 0.468 | 0.446 | 0.404 | 0.492
HCC-44 |  |  |  |  |  |  | 1.08 | 0.79 | 1.08
EKVX | 0.792 | 0.79 | 0.541 | 0.987 | 0.341 | 0.37 | 0.416 | 0.405 | 0.368
NCI-H1651 | 0.893 | 0.837 | 0.686 | 0.829 | 0.633 | 0.624 | 0.794 | 0.762 | 0.805
NCI-H1944 | 0.79 | 0.905 | 0.767 | 0.888 | 0.287 | 0.247 | 0.266 | 0.236 | 0.249
NCI-H1703 | 0.329 | 0.42 | 0.393 | 0.326 |  |  |  |  | 
Calu-6 | 0.939 | 0.951 | 0.891 | 0.893 |  |  |  |  | 
EBC-1 | 0.0974 | 0.103 | 0.0984 | 0.102 |  |  |  |  | 
SW 1573 | 0.939 | 0.997 | 1.04 | 0.966 | 0.175 | 0.179 | 0.178 | 0.201 | 0.14
A-427 | 1.11 | 1.07 | 1.05 | 1.05 | 0.243 | 0.227 | 0.251 | 0.24 | 0.188
NCI-H2347 | 1.23 | 0.918 | 0.969 | 0.981 | 0.6 | 0.59 |  | 0.613 | 0.583
NCI-H1355 | 0.936 | 0.907 | 0.795 | 0.791 | 0.572 | 0.629 | 0.549 | 0.611 | 0.612
NCI-H358 | 0.834 | 0.84 | 0.642 | 0.634 | 0.0952 | 0.0863 | 0.103 | 0.1 | 0.097
PC-3 [JPC-3] | 0.923 | 0.948 | 0.819 | 0.915 | 0.847 | 0.943 | 0.833 | 0.827 | 0.859
NCI-H2228 | 1.04 | 0.964 | 0.879 | 1.16 | 0.222 | 0.278 | 0.229 | 0.246 | 0.252
HOP-62 | 1.25 | 1.2 | 1.05 | 1.09 | 0.369 | 0.316 | 0.308 | 0.406 | 0.404
HARA | 0.913 | 0.833 | 0.779 | 1.02 | 0.13 | 0.106 | 0.143 | 0.0993 | 0.109
NCI-H838 | 1.08 | 1.22 | 0.985 | 0.989 | 0.276 | 0.295 | 0.29 | 0.248 | 0.253

Cell Line | relative viability (BAM7 + Foretinib; first compound 0.5 µM) | relative viability (BAM7 + Foretinib; first compound 5 µM) | relative viability (BAM7 + Foretinib; first compound 15.81 µM) | relative viability (BAM7 + Foretinib; first compound 50 µM) | relative viability ([1]; first compound 0.01 µM) | relative viability ([1]; first compound 0.03162 µM) | relative viability ([1]; first compound 0.1 µM) | relative viability ([1]; first compound 0.3162 µM) | relative viability ([1]; first compound 1 µM)
NCI-H1755 | 0.951 | 0.941 | 0.961 | 0.95 | 0.617 | 0.498 | 0.572 | 0.55 | 0.61
HCC-78 | 0.566 | 0.516 | 0.564 | 0.58 | 0.391 | 0.414 | 0.36 | 0.41 | 0.405
IA-LM | 1.36 | 1.2 | 1.03 | 1.21 |  |  |  |  | 
NCI-H322M | 0.939 | 0.95 | 0.862 | 0.932 | 0.465 | 0.419 | 0.423 | 0.42 | 0.448
NCI-H3122 | 0.838 | 0.856 | 0.916 | 0.866 | 0.369 | 0.405 | 0.396 | 0.369 | 0.337
COR-L23 | 0.891 | 1.01 | 0.897 | 0.981 | 0.202 | 0.19 | 0.235 | 0.188 | 0.18
NCI-H2087 | 1.18 | 1.23 | 0.995 | 1.12 | 0.264 | 0.258 | 0.248 | 0.259 | 0.303
LC-2-ad | 0.908 | 0.911 | 0.829 | 0.908 | 0.457 | 0.442 | 0.474 | 0.44 | 0.451
NCI-H1915 | 1.21 | 1.15 | 1.02 | 1.02 | 0.439 | 0.424 | 0.422 | 0.413 | 0.464
NCI-H1793 | 0.679 | 0.619 | 0.727 | 0.928 | 0.361 | 0.421 | 0.487 | 0.343 | 0.35
NCI-H2023 | 0.925 | 0.783 | 0.803 | 0.964 | 0.339 | 0.379 | 0.341 | 0.305 | 0.343
COR-L 105 | 0.957 | 1.24 | 0.937 | 0.979 | 0.31 | 0.432 | 0.407 | 0.367 | 0.374
RERF-LC-KJ | 0.821 | 0.832 | 0.81 | 0.833 | 0.441 | 0.516 | 0.403 | 0.477 | 0.416
LXF-289 | 1.04 | 0.968 | 0.986 | 0.961 | 0.218 | 0.194 | 0.169 | 0.184 | 0.197
PC-14 | 0.981 | 1.03 | 0.888 | 1.01 | 0.587 | 0.63 | 0.687 | 0.533 | 0.716
NCI-H650 | 0.988 | 1.14 | 1 | 0.992 | 0.724 | 0.746 | 0.73 | 0.723 | 0.694
NCI-H1666 | 0.945 | 1.1 | 0.996 | 1.06 | 0.625 | 0.691 | 0.644 | 0.578 | 0.567
NCI-H2085 | 0.973 | 1.18 | 0.743 | 1.19 | 0.81 | 0.771 | 0.811 | 0.822 | 0.729
NCI-H1734 | 0.849 | 1 | 0.779 | 0.825 | 0.262 | 0.258 | 0.285 | 0.26 | 0.268
